Numbers after ± are expanded uncertainties.
Tests used:
[1] = for surface tension liquid-gas: Drop volume; for mass density: 101.33 kPa, Liquid, Pycnometric method
[2] = xn = mol fraction of the nth substance listed; conditions: Drop volume

CC(C)(C)Cl [2-chloro-2-methylpropane]
[1]
Conditions | mass density [kg/m3] | surface tension liquid-gas [mN/m]
298.15 K | 836.45 ± 0.83 | 18.9 ± 0.24
313.15 K | – | 16.98 ± 0.22

C1CCOC1 [tetrahydrofuran]
[1]
Conditions | mass density [kg/m3] | surface tension liquid-gas [mN/m]
298.15 K | 881.95 ± 0.81 | 27.04 ± 0.31
313.15 K | – | 25.05 ± 0.29

CC(C)CCl [1-chloro-2-methylpropane] + C1CCOC1
[2]
Conditions | surface tension liquid-gas [mN/m]
298.15 K, x2 = 0.0652 | 22.25 ± 0.28
298.15 K, x2 = 0.1201 | 22.54 ± 0.28
298.15 K, x2 = 0.2392 | 23.06 ± 0.28
298.15 K, x2 = 0.3613 | 23.53 ± 0.29
298.15 K, x2 = 0.4622 | 23.94 ± 0.29
298.15 K, x2 = 0.5682 | 24.44 ± 0.29
298.15 K, x2 = 0.6614 | 24.9 ± 0.29
298.15 K, x2 = 0.7586 | 25.42 ± 0.3
298.15 K, x2 = 0.8408 | 25.89 ± 0.3
298.15 K, x2 = 0.9257 | 26.45 ± 0.31
298.15 K, x2 = 0.9662 | 26.75 ± 0.31
313.15 K, x2 = 0.0619 | 19.77 ± 0.25
313.15 K, x2 = 0.1268 | 20.25 ± 0.26
313.15 K, x2 = 0.2531 | 21 ± 0.26
313.15 K, x2 = 0.359 | 21.53 ± 0.27
313.15 K, x2 = 0.4722 | 22.06 ± 0.27
313.15 K, x2 = 0.5669 | 22.51 ± 0.27
313.15 K, x2 = 0.659 | 22.97 ± 0.28
313.15 K, x2 = 0.7539 | 23.45 ± 0.28
313.15 K, x2 = 0.8338 | 23.88 ± 0.28
313.15 K, x2 = 0.9198 | 24.42 ± 0.29
313.15 K, x2 = 0.9751 | 24.83 ± 0.29

CCCCCl [1-chlorobutane] + C1CCOC1
[2]
Conditions | surface tension liquid-gas [mN/m]
298.15 K, x2 = 0.0526 | 23.45 ± 0.29
298.15 K, x2 = 0.1121 | 23.62 ± 0.29
298.15 K, x2 = 0.2436 | 23.98 ± 0.29
298.15 K, x2 = 0.3549 | 24.29 ± 0.29
298.15 K, x2 = 0.4671 | 24.65 ± 0.3
298.15 K, x2 = 0.5624 | 25 ± 0.3
298.15 K, x2 = 0.6678 | 25.41 ± 0.3
298.15 K, x2 = 0.7575 | 25.79 ± 0.3
298.15 K, x2 = 0.84 | 26.16 ± 0.31
298.15 K, x2 = 0.9224 | 26.58 ± 0.31
298.15 K, x2 = 0.9739 | 26.87 ± 0.31
313.15 K, x2 = 0.0654 | 21.78 ± 0.27
313.15 K, x2 = 0.1272 | 21.95 ± 0.27
313.15 K, x2 = 0.25 | 22.28 ± 0.27
313.15 K, x2 = 0.3654 | 22.59 ± 0.28
313.15 K, x2 = 0.4658 | 22.89 ± 0.28
313.15 K, x2 = 0.5586 | 23.2 ± 0.28
313.15 K, x2 = 0.6569 | 23.56 ± 0.28
313.15 K, x2 = 0.7489 | 23.92 ± 0.28
313.15 K, x2 = 0.8401 | 24.3 ± 0.29
313.15 K, x2 = 0.9272 | 24.69 ± 0.29
313.15 K, x2 = 0.9663 | 24.88 ± 0.29

CCC(C)Cl (configuration not stated) [2-chlorobutane]
[1]
Conditions | mass density [kg/m3] | surface tension liquid-gas [mN/m]
298.15 K | 867.37 ± 0.86 | 21.93 ± 0.28
313.15 K | – | 19.33 ± 0.25

CC(C)(C)Cl [2-chloro-2-methylpropane] + C1CCOCC1
[2]
Conditions | surface tension liquid-gas [mN/m]
298.15 K, x2 = 0.0332 | 19.18 ± 0.24
298.15 K, x2 = 0.0955 | 19.68 ± 0.25
298.15 K, x2 = 0.2242 | 20.68 ± 0.26
298.15 K, x2 = 0.3219 | 21.37 ± 0.27
298.15 K, x2 = 0.4336 | 22.17 ± 0.28
298.15 K, x2 = 0.5374 | 22.97 ± 0.29
298.15 K, x2 = 0.6269 | 23.69 ± 0.29
298.15 K, x2 = 0.7173 | 24.48 ± 0.3
298.15 K, x2 = 0.8149 | 25.41 ± 0.32
298.15 K, x2 = 0.9089 | 26.36 ± 0.32
298.15 K, x2 = 0.9418 | 26.71 ± 0.33
313.15 K, x2 = 0.0734 | 17.35 ± 0.23
313.15 K, x2 = 0.1038 | 17.5 ± 0.23
313.15 K, x2 = 0.2093 | 18.14 ± 0.24
313.15 K, x2 = 0.3169 | 18.9 ± 0.24
313.15 K, x2 = 0.4363 | 19.8 ± 0.25
313.15 K, x2 = 0.5116 | 20.41 ± 0.26
313.15 K, x2 = 0.612 | 21.24 ± 0.27
313.15 K, x2 = 0.7058 | 22.05 ± 0.28
313.15 K, x2 = 0.8154 | 23.08 ± 0.29
313.15 K, x2 = 0.9006 | 23.98 ± 0.31
313.15 K, x2 = 0.9529 | 24.66 ± 0.32

CC(C)CCl [1-chloro-2-methylpropane] + C1CCOCC1
[2]
Conditions | surface tension liquid-gas [mN/m]
298.15 K, x2 = 0.0483 | 22.18 ± 0.28
298.15 K, x2 = 0.1067 | 22.55 ± 0.28
298.15 K, x2 = 0.2075 | 23.09 ± 0.29
298.15 K, x2 = 0.32 | 23.63 ± 0.29
298.15 K, x2 = 0.4148 | 24.07 ± 0.3
298.15 K, x2 = 0.519 | 24.58 ± 0.3
298.15 K, x2 = 0.6219 | 25.11 ± 0.31
298.15 K, x2 = 0.7194 | 25.65 ± 0.32
298.15 K, x2 = 0.8079 | 26.15 ± 0.32
298.15 K, x2 = 0.9077 | 26.72 ± 0.33
298.15 K, x2 = 0.9602 | 27.04 ± 0.33
313.15 K, x2 = 0.0377 | 19.55 ± 0.25
313.15 K, x2 = 0.1032 | 20.11 ± 0.26
313.15 K, x2 = 0.2167 | 20.92 ± 0.27
313.15 K, x2 = 0.3226 | 21.57 ± 0.27
313.15 K, x2 = 0.4213 | 22.13 ± 0.28
313.15 K, x2 = 0.5302 | 22.74 ± 0.29
313.15 K, x2 = 0.6241 | 23.27 ± 0.29
313.15 K, x2 = 0.7134 | 23.78 ± 0.3
313.15 K, x2 = 0.8148 | 24.37 ± 0.3
313.15 K, x2 = 0.9051 | 24.89 ± 0.31
313.15 K, x2 = 0.966 | 25.22 ± 0.31

— the NIST ThermoML archive (doi:10.1007/s10765-007-0169-z)
